Test results published in patent US11319322B2, “Substituted aryl ether compound, preparation method thereof, pharmaceutical composition and use thereof” (Xiamen University, priority 2017, dated 2022).

Assays:
[1] = target: T1, CCDC6-RET-BaF3 (Homo sapiens, UniProt P07949); experiment: Growth inhibition of CCDC6-RET-BaF3 cells stably transfected with kinase (MTS); assay type: cell-based; conditions: 48 h, read-out: CCDC6-RET (IC50/nM)
T1 construct: fused on or other part: Q16204 (Coiled-coil domain-containing protein 6)
Method: (§1) Growth inhibitory activity of compounds on cell lines stably transfected with kinase
(§2) The activity of compounds against kinase RET is evaluated by their effect of inhibiting growth of cell lines stably transfected with kinase CCDC6-RET-BaF3, KIF5B-RET-BaF3, and wild-type BaF3 (Proc. Natl. Acad. Sci. USA., 2006, 103, 3153-8.). The growth of the cell lines stably transfected with kinase CCDC6-RET-BaF3, KIF5B-RET-BaF3 depends on their kinase activity. If a compound can inhibit the activity of the kinase RET per se or the activity of the RET signaling pathway, the compound can inhibit the growth of BaF3 cells stably transfected with kinase. […] Therefore, a larger ratio between IC50 of a compound to wild-type BaF3 and IC50 of the compound to the cell lines stably transfected with kinase CCDC6-RET-BaF3, KIF5B-RET-BaF3 indicates better targeting.
(§3) The specific test method is given as follows:
(§4) 1) Medium: DMEM (Dulbecco's modified eagle medium) or RPMI 1640 (containing 10% fetal bovine serum, 100 μg/mL ampicillin, 100 μg/mL streptomycin).
(§5) 2) Reagents: MTS reaction solution (containing 2 mg/mL of MTS [3-(4,5-dimethylthiazol-2-yl)-5-(3-carboxymethoxyphenyl)-2-(4-sulfophenyl)-2H-tetrazolium, inner Salt]; 100 μg/mL PES (phenazine […])).
(§6) 3) Compound test: cells stably transfected with kinase (CCDC6-RET-BaF3, KIF5B-RET-BaF3) or wild-type BaF3 cells (2×10^4 cells/well) were incubated into a 96-well culture plate, the volume of cell culture fluid was 90 μL, and then 10 μL of the compound at each gradient concentration was added (the highest concentration was 10 μM, which was diluted stepwise by ⅓, and 8 concentration points were set in total; the system contained 0.1% DMSO (dimethyl sulfoxide)). The cell plate with uniformly mixed compound was cultured in a cell culture incubator (37° C.; 5% CO2) for 48 h, then 20 μL of MTS reaction solution was added, uniformly mixed and incubated in the cell culture incubator (37° C.; 5% CO2) for 1-4 hr, OD values at 490 nm were measured by a microplate reader (VARIOSKAN FLASH, Thermo). Three parallels were set in each group of experiments, with 0.1% (a final concentration) DMSO as a negative control, and a medium without cells or compounds as a blank control. The cell growth inhibition rate was calculated by the following formula: Cell growth inhibition rate %=1−(ODexperimental group−ODblank group)/(ODnegative group−ODblank group)×100%
(§7) 4) IC50 calculation: The semi-inhibitory concentration of the compound acting on cell growth was calculated using GradPad Prism 5 software according to the measured cell growth inhibition rate.

[2] = target: T2, KIF5B-RET-BaF3 (Homo sapiens, UniProt P07949); experiment: Growth inhibition of KIF5B-RET-BaF3 cells stably transfected with kinase (MTS); assay type: cell-based; conditions: 48 h, read-out: KIF5B-RET (IC50/nM)
T2 construct: fused on or other part: P33176 (Kinesin-1 heavy chain)
Method: as §1, §2, §3, §4, §5, §6, §7

T2 sequence (P07949 whole entry, change not shown, the tested form may be a part): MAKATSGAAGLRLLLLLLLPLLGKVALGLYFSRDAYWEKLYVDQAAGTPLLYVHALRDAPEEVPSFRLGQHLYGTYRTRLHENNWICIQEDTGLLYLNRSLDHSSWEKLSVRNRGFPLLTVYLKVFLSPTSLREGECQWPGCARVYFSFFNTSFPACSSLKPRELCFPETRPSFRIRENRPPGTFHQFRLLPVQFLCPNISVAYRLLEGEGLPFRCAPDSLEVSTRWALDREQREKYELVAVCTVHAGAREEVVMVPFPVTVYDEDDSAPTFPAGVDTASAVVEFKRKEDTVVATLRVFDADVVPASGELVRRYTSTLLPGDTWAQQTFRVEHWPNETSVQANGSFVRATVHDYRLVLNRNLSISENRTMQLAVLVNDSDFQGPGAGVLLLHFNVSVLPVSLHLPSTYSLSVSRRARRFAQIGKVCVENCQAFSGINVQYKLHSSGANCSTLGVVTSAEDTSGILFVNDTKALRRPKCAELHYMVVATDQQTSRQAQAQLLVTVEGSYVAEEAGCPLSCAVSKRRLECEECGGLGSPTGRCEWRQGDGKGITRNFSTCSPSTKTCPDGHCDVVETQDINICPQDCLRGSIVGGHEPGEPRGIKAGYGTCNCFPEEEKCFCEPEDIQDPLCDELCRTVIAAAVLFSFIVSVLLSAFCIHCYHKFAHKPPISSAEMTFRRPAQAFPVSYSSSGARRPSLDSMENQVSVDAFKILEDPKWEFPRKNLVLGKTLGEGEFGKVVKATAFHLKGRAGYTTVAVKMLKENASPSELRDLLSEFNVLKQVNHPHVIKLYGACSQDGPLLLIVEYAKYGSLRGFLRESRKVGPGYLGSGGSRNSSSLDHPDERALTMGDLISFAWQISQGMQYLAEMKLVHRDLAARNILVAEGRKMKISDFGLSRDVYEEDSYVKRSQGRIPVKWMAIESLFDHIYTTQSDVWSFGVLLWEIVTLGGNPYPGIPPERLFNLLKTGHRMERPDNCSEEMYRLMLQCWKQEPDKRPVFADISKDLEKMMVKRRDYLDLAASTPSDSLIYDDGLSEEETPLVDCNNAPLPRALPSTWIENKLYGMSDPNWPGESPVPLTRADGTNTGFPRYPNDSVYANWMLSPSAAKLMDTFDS
T1 sequence (P07949 whole entry, change not shown, the tested form may be a part): as above

Work on `CN1CCN(Cc2ccc(C(=O)Nc3cc(Oc4nc(-c5cccnc5)nc5c4cnn5C)ccc3Cl)cc2C(F)(F)F)CC1` [II-k-1] yielded a GI50 [1] of 2070 nM and a GI50 [2] of 1390 nM.

Compound `CN1CCN(Cc2ccc(C(=O)Nc3cc(Oc4nc(-c5ccncc5)nc5c4cnn5C)ccc3Cl)cc2C(F)(F)F)CC1` [II-k-2] has a GI50 [1] of 15.8 nM and a GI50 [2] of 114 nM.

For `Cc1ccc(C(=O)Nc2ccc(CN3CCN(C)CC3)c(C(F)(F)F)c2)cc1Oc1nc(-c2ccncc2)nc2c1cnn2C` [II-m-2], the GI50 [1] was 30.2 nM and the GI50 [2] was 17.8 nM.

With `Cc1ccc(C(=O)Nc2ccc(CN3CCN(C)CC3)c(C(F)(F)F)c2)cc1Oc1nc(-c2ccccc2)nc2c1cnn2C` [II-m-3] the GI50 [1] was 348 nM and the GI50 [2] was 97.7 nM.

`Cc1ccc(-c2nc(Oc3cc(C(=O)Nc4ccc(CN5CCN(C)CC5)c(C(F)(F)F)c4)ccc3C)c3cnn(C)c3n2)cc1` [II-m-4] gave a GI50 [1] of 848 nM and a GI50 [2] of 152 nM.

For `Cc1ccc(C(=O)Nc2ccc(CN3CCN(C)CC3)c(C(F)(F)F)c2)cc1Oc1nc(-c2cccc(Cl)c2)nc2c1cnn2C` [II-m-5], the GI50 [1] was 807 nM and the GI50 [2] was 320 nM.

`Cc1ccc(C(=O)Nc2ccc(CN3CCN(C)CC3)c(C(F)(F)F)c2)cc1Oc1nc(-c2ccc(Cl)cc2)nc2c1cnn2C` [II-m-6] was tested, and the GI50 [1] was 696 nM and the GI50 [2] was 114 nM.

Compound `Cc1ccc(C(=O)Nc2ccc(CN3CCN(C)CC3)c(C(F)(F)F)c2)cc1Oc1nc(-c2cccc(O)c2)nc2c1cnn2C` [II-m-7] has a GI50 [1] of 178 nM and a GI50 [2] of 28.3 nM.

`Cc1ccc(C(=O)Nc2ccc(CN3CCN(C)CC3)c(C(F)(F)F)c2)cc1Oc1nc(-c2ccc(O)cc2)nc2c1cnn2C` [II-m-8] gave a GI50 [1] of 166 nM and a GI50 [2] of 56.9 nM.

Work on `Cc1ccc(C(=O)Nc2ccc(CN3CCN(C)CC3)c(C(F)(F)F)c2)cc1Oc1nc(-c2ccoc2)nc2c1cnn2C` [II-m-9] yielded a GI50 [1] of 75.1 nM and a GI50 [2] of 14.6 nM.

`Cc1ccc(C(=O)Nc2ccc(CN3CCN(C)CC3)c(C(F)(F)F)c2)cc1Oc1nc(-c2ccsc2)nc2c1cnn2C` [II-m-10] was tested, and the GI50 [1] was 449 nM and the GI50 [2] was 36.4 nM.

For `Cc1ccc(C(=O)Nc2ccc(CN3CCN(C)CC3)c(C(F)(F)F)c2)cc1Oc1nc(Nc2cccnc2)nc2c1cnn2C` [II-m-11], the GI50 [1] was 31.8 nM and the GI50 [2] was 14.9 nM.

`Cc1ccc(C(=O)Nc2ccc(CN3CCN(C)CC3)c(C(F)(F)F)c2)cc1Oc1nc(Nc2ccccc2)nc2c1cnn2C` [II-m-12] showed a GI50 [1] of 123 nM and a GI50 [2] of 69.7 nM.

`Cc1ccc(Nc2nc(Oc3cc(C(=O)Nc4ccc(CN5CCN(C)CC5)c(C(F)(F)F)c4)ccc3C)c3cnn(C)c3n2)cc1` [II-m-13] gave a GI50 [1] of 253 nM and a GI50 [2] of 172 nM.

Compound `Cc1ccc(C(=O)Nc2ccc(CN3CCN(C)CC3)c(C(F)(F)F)c2)cc1Oc1nc(NC2CC2)nc2c1cnn2C` [II-m-14] has a GI50 [1] of 9.31 nM and a GI50 [2] of 21.6 nM.

`Cc1ccc(C(=O)Nc2ccc(CN3CCN(C)CC3)c(C(F)(F)F)c2)cc1Oc1nc(N2CCOCC2)nc2c1cnn2C` [II-m-15] showed a GI50 [1] of 111 nM and a GI50 [2] of 18 nM.

Work on `Cc1ccc(C(=O)Nc2ccc(CN3CCN(C)CC3)c(C(F)(F)F)c2)cc1Oc1nc(N2CC(C)OC(C)C2)nc2c1cnn2C` (stereo not shown) [II-m-16] yielded a GI50 [1] of 384 nM and a GI50 [2] of 84.6 nM.

`Cc1ccc(C(=O)Nc2ccc(CN3CCN(C)CC3)c(C(F)(F)F)c2)cc1Oc1nc(N2CCN(C)CC2)nc2c1cnn2C` [II-m-17] gave a GI50 [1] of 1100 nM and a GI50 [2] of 160 nM.

Work on `Cc1ccc(C(=O)Nc2ccc(CN3CCN(C)CC3)c(C(F)(F)F)c2)cc1Oc1nc(N(C)C)nc2c1cnn2C` [II-m-18] yielded a GI50 [1] of 257 nM and a GI50 [2] of 34.3 nM.

In the case of `Cc1ccc(C(=O)Nc2ccc(CN3CCN(C)CC3)c(C(F)(F)F)c2)cc1Oc1ncnc2c1cnn2C` [II-m-19], the GI50 [1] is reported as 54.9 nM and the GI50 [2] is reported as 124 nM.

In the case of `Cc1ccc(C(=O)Nc2ccc(CN3CCN(C)CC3)c(C(F)(F)F)c2)cc1Oc1nc(-c2ccncc2)nc2c1cnn2C(C)C` [II-m-23], the GI50 [1] is reported as 1100 nM and the GI50 [2] is reported as 916 nM.

`Cc1ccc(Oc2nc(-c3ccncc3)nc3c2cnn3C)cc1C(=O)Nc1ccc(CN2CCN(C)CC2)c(C(F)(F)F)c1` [II-n-2] gave a GI50 [1] of 1520 nM and a GI50 [2] of 440 nM.

`CN1CCN(Cc2ccc(NC(=O)c3cc(Oc4nc(-c5cccnc5)nc5c4cnn5C)ccc3Cl)cc2C(F)(F)F)CC1` [II-o-1] gave a GI50 [1] of 4170 nM and a GI50 [2] of 4020 nM.
